Values quoted from earlier work in US11590090B2, “Acetaminophen formulation with protection against toxic effects of overdose” (Anzen Pharmaceuticals, LLC, priority 2019, dated 2023).

Test system: cytochrome P450 mixed-function oxygenase system
Details: upon ingestion

Fraction metabolized in the liver by cytochrome P450 to NAPQI: about 5%
Compound: CC(=O)Nc1ccc(O)cc1 [acetaminophen]
